From ChEMBL document CHEMBL1201862, “PubChem BioAssay data set” (2004)
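Dose response: 5 concentrations. Exposure: 48 h. Format: 96-well plates. Endpoint: linear interpolation; highest concentration if not reached. GI50: concentration for 50% inhibition of growth.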 Calls of active or inactive are those of the source. Rule as the data show it: active = GI50 up to about 1.1 µM and inactive = higher.

What was measured:
Assay in all cases: DTP human tumour cell line panel, 48 h
CCRF-CEM = system: CCRF-CEM
UACC-62 = system: UACC-62
SK-OV-3 = system: SK-OV-3
Malme-3M = system: Malme-3M
NCI-H460 = system: NCI-H460
786-0 = system: 786-0
RXF 393 = system: RXF 393
M14 = system: M14
HOP-62 = system: HOP-62
SNB-19 = system: SNB-19
SK-MEL-28 = system: SK-MEL-28
OVCAR-5 = system: OVCAR-5
HOP-18 = system: HOP-18
A549 = system: A549
OVCAR-3 = system: OVCAR-3
MOLT-4 = system: MOLT-4
SF-539 = system: SF-539
KM12 = system: KM12
K562 = system: K562
SF-268 = system: SF-268
HCT-116 = system: HCT-116
HL-60 = system: HL-60
U-251 = system: U-251
NCI-H226 = system: NCI-H226
IGROV-1 = system: IGROV-1
CAKI-1 = system: CAKI-1
SK-MEL-5 = system: SK-MEL-5
OVCAR-4 = system: OVCAR-4
NCI-H522 = system: NCI-H522
HOP-92 = system: HOP-92
LXFL 529 = system: LXFL 529
HCC 2998 = system: HCC 2998
COLO 205 = system: COLO 205
RPMI-8226 = system: RPMI-8226
HCT-15 = system: HCT-15
SW-620 = system: SW-620
KM-20L2 = system: KM-20L2
SN12C = system: SN12C
SF-295 = system: SF-295
UACC-257 = system: UACC-257
SK-MEL-2 = system: SK-MEL-2
HT-29 = system: HT-29
RXF 631 = system: RXF 631
DLD-1 = system: DLD-1
EKVX = system: EKVX
NCI-H23 = system: NCI-H23
DMS-273 = system: DMS-273
OVCAR-8 = system: OVCAR-8
ACHN = system: ACHN
UO-31 = system: UO-31
SR = system: SR
SNB-75 = system: SNB-75
M19-MEL = system: M19-MEL
TK-10 = system: TK-10
LOX IMVI = system: LOX IMVI
DMS-114 = system: DMS-114

## CC[C@@H]1OC2(C)CC(S(=O)(=O)c3ccccc3O)CC1O2 (stereo partly specified)
CCRF-CEM
  GI50: > 100 µM (inactive)
UACC-62
  GI50: > 100 µM (inactive)
SK-OV-3
  GI50: > 100 µM (inactive)
Malme-3M
  GI50: > 100 µM (inactive)
NCI-H460
  GI50: > 100 µM (inactive)
786-0
  GI50: > 100 µM (inactive)
RXF 393
  GI50: > 100 µM (inactive)
M14
  GI50: > 100 µM (inactive)
HOP-62
  GI50: > 100 µM (inactive)
SNB-19
  GI50: > 100 µM (inactive)
SK-MEL-28
  GI50: > 100 µM (inactive)
OVCAR-5
  GI50: > 100 µM (inactive)
HOP-18
  GI50: > 100 µM (inactive)
A549
  GI50: > 100 µM (inactive)
OVCAR-3
  GI50: > 100 µM (inactive)
MOLT-4
  GI50: > 100 µM (inactive)
SF-539
  GI50: > 100 µM (inactive)
KM12
  GI50: > 100 µM (inactive)
K562
  GI50: > 100 µM (inactive)
SF-268
  GI50: > 100 µM (inactive)
HCT-116
  GI50: > 100 µM (inactive)
HL-60
  GI50: > 100 µM (inactive)
U-251
  GI50: > 100 µM (inactive)
NCI-H226
  GI50: > 100 µM (inactive)
IGROV-1
  GI50: > 100 µM (inactive)
CAKI-1
  GI50: < 0.01 µM (active)
SK-MEL-5
  GI50: > 100 µM (inactive)
OVCAR-4
  GI50: > 100 µM (inactive)
NCI-H522
  GI50: > 100 µM (inactive)
HOP-92
  GI50: > 100 µM (inactive)
LXFL 529
  GI50: > 100 µM (inactive)
HCC 2998
  GI50: > 100 µM (inactive)
COLO 205
  GI50: > 100 µM (inactive)
RPMI-8226
  GI50: > 100 µM (inactive)
HCT-15
  GI50: > 100 µM
SW-620
  GI50: > 100 µM (inactive)
KM-20L2
  GI50: > 100 µM (inactive)
SN12C
  GI50: > 100 µM (inactive)
SF-295
  GI50: > 100 µM (inactive)
UACC-257
  GI50: > 100 µM (inactive)
SK-MEL-2
  GI50: > 100 µM (inactive)
HT-29
  GI50: > 10 µM (inactive)
RXF 631
  GI50: > 100 µM (inactive)
DLD-1
  GI50: > 100 µM (inactive)
EKVX
  GI50: > 100 µM (inactive)
NCI-H23
  GI50: > 100 µM (inactive)
DMS-273
  GI50: > 100 µM (inactive)
OVCAR-8
  GI50: > 100 µM (inactive)
ACHN
  GI50: > 100 µM (inactive)
UO-31
  GI50: > 100 µM (inactive)
SR
  GI50: > 100 µM (inactive)
SNB-75
  GI50: > 100 µM (inactive)
M19-MEL
  GI50: > 100 µM (inactive)

## COC(=O)C1Cc2c([nH]c3ccccc23)C(C2CCCCC2)N1 (stereo unspecified)
CCRF-CEM
  GI50: > 100 µM (inactive)
UACC-62
  GI50: > 100 µM (inactive)
SK-OV-3
  GI50: > 100 µM (inactive)
Malme-3M
  GI50: > 100 µM (inactive)
NCI-H460
  GI50: > 100 µM (inactive)
786-0
  GI50: > 100 µM (inactive)
M14
  GI50: > 100 µM (inactive)
TK-10
  GI50: > 100 µM (inactive)
SNB-19
  GI50: > 100 µM (inactive)
SK-MEL-28
  GI50: > 100 µM (inactive)
OVCAR-5
  GI50: > 100 µM (inactive)
HOP-18
  GI50: > 100 µM (inactive)
A549
  GI50: > 100 µM (inactive)
OVCAR-3
  GI50: > 100 µM (inactive)
MOLT-4
  GI50: > 100 µM (inactive)
SF-539
  GI50: > 100 µM (inactive)
KM12
  GI50: > 100 µM (inactive)
K562
  GI50: > 100 µM (inactive)
SF-268
  GI50: > 100 µM (inactive)
HCT-116
  GI50: > 100 µM (inactive)
LOX IMVI
  GI50: > 100 µM (inactive)
HL-60
  GI50: > 100 µM (inactive)
U-251
  GI50: > 100 µM (inactive)
NCI-H226
  GI50: > 100 µM (inactive)
IGROV-1
  GI50: 83.9 µM (inactive)
CAKI-1
  GI50: > 100 µM (inactive)
SK-MEL-5
  GI50: 52.7 µM (inactive)
OVCAR-4
  GI50: > 100 µM (inactive)
NCI-H522
  GI50: > 100 µM (inactive)
HOP-92
  GI50: > 100 µM (inactive)
LXFL 529
  GI50: > 100 µM (inactive)
HCC 2998
  GI50: > 100 µM (inactive)
COLO 205
  GI50: > 100 µM (inactive)
HCT-15
  GI50: > 100 µM
SW-620
  GI50: > 100 µM (inactive)
KM-20L2
  GI50: > 100 µM (inactive)
SN12C
  GI50: > 100 µM (inactive)
SF-295
  GI50: > 100 µM (inactive)
UACC-257
  GI50: > 100 µM (inactive)
SK-MEL-2
  GI50: > 100 µM (inactive)
HT-29
  GI50: > 100 µM (inactive)
RXF 631
  GI50: > 100 µM (inactive)
DLD-1
  GI50: > 100 µM (inactive)
EKVX
  GI50: > 100 µM (inactive)
NCI-H23
  GI50: > 100 µM (inactive)
DMS-114
  GI50: > 100 µM (inactive)
DMS-273
  GI50: > 100 µM (inactive)
OVCAR-8
  GI50: > 100 µM (inactive)
ACHN
  GI50: > 100 µM (inactive)
UO-31
  GI50: > 100 µM (inactive)
SR
  GI50: > 100 µM (inactive)
SNB-75
  GI50: > 100 µM (inactive)
M19-MEL
  GI50: > 100 µM (inactive)
